From ChEMBL document CHEMBL5346873, “Strategic modification of low-activity natural antimicrobial peptides confers antibacterial potential in vitro and in vivo” (Eur J Med Chem, 2023)

How the values were obtained:
Klebsiella oxytoca [1] = test: Bactericidal activity against Klebsiella oxytoca incubated overnight; type: functional
Salmonella typhimurium [2] = test: Antibacterial activity against Salmonella typhimurium incubated for 16 to 20 hrs; type: functional, Salmonella enterica subsp. enterica serovar Typhimurium; details: Salmonella enterica; time 16-20 hrs
Enterococcus faecalis [3] = test: Antibacterial activity against Enterococcus faecalis incubated for 16 to 20 hrs; type: functional; details: time 16-20 hrs
Vibrio alginolyticus [4] = test: Antibacterial activity against Vibrio alginolyticus incubated for 16 to 20 hrs; type: functional; details: time 16-20 hrs
Streptococcus iniae [5] = test: Antibacterial activity against Streptococcus iniae incubated for 16 to 20 hrs; type: functional; details: time 16-20 hrs
Vibrio vulnificus [6] = test: Antibacterial activity against Vibrio vulnificus 204 incubated for 16 to 20 hrs; type: functional; details: time 16-20 hrs
Klebsiella aerogenes [7] = test: Bactericidal activity against Enterobacter aerogenes incubated overnight; type: functional
Acinetobacter baumannii [8] = test: Antibacterial activity against Acinetobacter baumannii; type: functional
Streptococcus agalactiae [9] = test: Antibacterial activity against Streptococcus agalactiae incubated for 16 to 20 hrs; type: functional; details: time 16-20 hrs
Vibrio vulnificus [10] = test: Antibacterial activity against Vibrio vulnificus 204 assessed as induction of resistance development by measuring fold increase in MIC measured after 15 passages; type: functional
[11] = test system: Staphylococcus haemolyticus; test: Antibacterial activity against Staphylococcus haemolyticus incubated for 16 to 20 hrs; type: functional; details: time 16-20 hrs
Vibrio anguillarum [12] = test: Antibacterial activity against Listonella anguillarum incubated for 16 to 20 hrs; type: functional; details: time 16-20 hrs
Salmonella enterica [13] = test: Bactericidal activity against Salmonella enterica incubated overnight; type: functional
Vibrio vulnificus [14] = test: Bactericidal activity against Vibrio vulnificus V3 incubated overnight; type: functional
Salmonella typhimurium [15] = test: Bactericidal activity against Salmonella typhimurium incubated overnight; type: functional, Salmonella enterica subsp. enterica serovar Typhimurium; details: Salmonella enterica
Vibrio vulnificus [16] = test: Antibacterial activity against Vibrio vulnificus V1 incubated for 16 to 20 hrs; type: functional; details: time 16-20 hrs
Vibrio vulnificus [17] = test: Antibacterial activity against Vibrio vulnificus V3 incubated for 16 to 20 hrs; type: functional; details: time 16-20 hrs
Aeromonas hydrophila [18] = test: Bactericidal activity against Aeromonas hydrophila incubated overnight; type: functional
[19] = test system: Staphylococcus haemolyticus; test: Bactericidal activity against Staphylococcus haemolyticus incubated overnight; type: functional
Enterococcus faecium [20] = test: Antibacterial activity against Enterococcus faecium incubated for 16 to 20 hrs; type: functional; details: time 16-20 hrs
Edwardsiella tarda [21] = test: Antibacterial activity against Edwardsiella tarda incubated for 16 to 20 hrs; type: functional; details: time 16-20 hrs
Nakaseomyces glabratus [22] = test: Fungicidal activity against Candida glabrata incubated overnight; type: functional
Vibrio harveyi [23] = test: Antibacterial activity against Vibrio harveyi incubated for 16 to 20 hrs; type: functional; details: time 16-20 hrs
Klebsiella pneumoniae [24] = test: Bactericidal activity against NDM Klebsiella pneumoniae incubated overnight; type: functional
Nakaseomyces glabratus [25] = test: Antifungal activity against Candida glabrata incubated for 16 to 20 hrs; type: functional; details: time 16-20 hrs
Edwardsiella tarda [26] = test: Bactericidal activity against Edwardsiella tarda incubated overnight; type: functional
Escherichia coli [27] = test: Bactericidal activity against Escherichia coli incubated overnight; type: functional
Klebsiella pneumoniae [28] = test: Antibacterial activity against NDM Klebsiella pneumoniae incubated for 16 to 20 hrs; type: functional; details: time 16-20 hrs
Klebsiella oxytoca [29] = test: Antibacterial activity against Klebsiella oxytoca incubated for 16 to 20 hrs; type: functional; details: time 16-20 hrs
Vibrio anguillarum [30] = test: Bactericidal activity against Listonella anguillarum incubated overnight; type: functional
Vibrio alginolyticus [31] = test: Bactericidal activity against Vibrio alginolyticus incubated overnight; type: functional
Vibrio vulnificus [32] = test: Antibacterial activity against Vibrio vulnificus infected in BALB/c mouse wound infection model assessed as survival at 0.048 ug per animal administered 12 hrs post infection and measured for 14 days; type: functional; details: dose 0.048 µg; time 14 day
Candida tropicalis [33] = test: Antifungal activity against Candida tropicalis incubated for 16 to 20 hrs; type: functional; details: time 16-20 hrs
Escherichia coli [34] = test: Antibacterial activity against Escherichia coli incubated for 16 to 20 hrs; type: functional; details: time 16-20 hrs
Aeromonas hydrophila [35] = test: Antibacterial activity against Aeromonas hydrophila incubated for 16 to 20 hrs; type: functional; details: time 16-20 hrs
Enterococcus faecalis [36] = test: Bactericidal activity against Enterococcus faecalis incubated overnight; type: functional
Vibrio vulnificus [37] = test: Antibacterial activity against Vibrio vulnificus V2 incubated for 16 to 20 hrs; type: functional; details: time 16-20 hrs
Vibrio vulnificus [38] = test: Bactericidal activity against Vibrio vulnificus 204 incubated overnight; type: functional
Vibrio vulnificus [39] = test: Bactericidal activity against Vibrio vulnificus V2 incubated overnight; type: functional
Enterococcus faecium [40] = test: Bactericidal activity against Enterococcus faecium incubated overnight; type: functional
Klebsiella aerogenes [41] = test: Antibacterial activity against Enterobacter aerogenes incubated for 16 to 20 hrs; type: functional; details: time 16-20 hrs
Pseudomonas aeruginosa [42] = test: Antibacterial activity against Pseudomonas aeruginosa incubated for 16 to 20 hrs; type: functional; details: time 16-20 hrs
Salmonella enterica [43] = test: Antibacterial activity against Salmonella enterica incubated for 16 to 20 hrs; type: functional; details: time 16-20 hrs
Vibrio harveyi [44] = test: Bactericidal activity against Vibrio harveyi incubated overnight; type: functional
Streptococcus agalactiae [45] = test: Bactericidal activity against Streptococcus agalactiae incubated overnight; type: functional
Vibrio vulnificus [46] = test: Bactericidal activity against Vibrio vulnificus V1 incubated overnight; type: functional
Candida tropicalis [47] = test: Fungicidal activity against Candida tropicalis incubated overnight; type: functional
Streptococcus iniae [48] = test: Bactericidal activity against Streptococcus iniae incubated overnight; type: functional
Acinetobacter baumannii [49] = test: Bactericidal activity against Acinetobacter baumannii incubated for overnight; type: functional
[50] = Hemolytic activity in human RBC at 100 ug/ml incubated for 1 hr; type: toxicity, cell-based, Erythrocyte; details: human red blood cells (erythrocytes), at 100 µg/mL, read-out: Activity
Staphylococcus aureus = test: Bactericidal activity against Staphylococcus aureus incubated for overnight; type: functional
Pseudomonas aeruginosa [51] = test: Bactericidal activity against Pseudomonas aeruginosa incubated overnight; type: functional

C[C@H]1c2cccc(O)c2C(=O)C2=C(O)[C@]3(O)C(=O)C(C(N)=O)=C(O)[C@@H](N(C)C)[C@@H]3[C@@H](O)[C@@H]21.O [DOXYCYCLINE]
MBC (Klebsiella oxytoca [1]): 25 µg/mL
MIC (Salmonella typhimurium [2]): < 1.56 µg/mL
MIC (Enterococcus faecalis [3]): 6.25 µg/mL
MIC (Vibrio alginolyticus [4]): < 1.56 µg/mL
MIC (Streptococcus iniae [5]): < 1.56 µg/mL
MIC (Vibrio vulnificus [6]): < 1.56 µg/mL
MBC (Klebsiella aerogenes [7]): 6.25 µg/mL
MIC (Acinetobacter baumannii [8]): 0.048 µg/mL
MIC (Streptococcus agalactiae [9]): < 1.56 µg/mL
fold change (FC) (Vibrio vulnificus [10]): 128
MIC [11]: < 1.56 µg/mL
MIC (Vibrio anguillarum [12]): < 1.56 µg/mL
MBC (Salmonella enterica [13]): 25 µg/mL
MBC (Vibrio vulnificus [14]): < 1.56 µg/mL
MBC (Salmonella typhimurium [15]): 50 µg/mL
MIC (Vibrio vulnificus [16]): < 1.56 µg/mL
MIC (Vibrio vulnificus [17]): < 1.56 µg/mL
MBC (Aeromonas hydrophila [18]): 12.5 µg/mL
MBC [19]: < 1.56 µg/mL
MIC (Enterococcus faecium [20]): < 1.56 µg/mL
MIC (Edwardsiella tarda [21]): < 1.56 µg/mL
MFC (Nakaseomyces glabratus [22]): > 100 µg/mL
MIC (Vibrio harveyi [23]): < 1.56 µg/mL
MBC (Klebsiella pneumoniae [24]): 100 µg/mL
MIC (Nakaseomyces glabratus [25]): > 100 µg/mL
MBC (Edwardsiella tarda [26]): < 1.56 µg/mL
MBC (Escherichia coli [27]): 50 µg/mL
MIC (Klebsiella pneumoniae [28]): 25 µg/mL
MIC (Klebsiella oxytoca [29]): 3.12 µg/mL
MBC (Vibrio anguillarum [30]): 50 µg/mL
MBC (Vibrio alginolyticus [31]): 12.5 µg/mL
Activity (Vibrio vulnificus [32]): 25%
MIC (Candida tropicalis [33]): > 100 µg/mL
MIC (Escherichia coli [34]): < 1.56 µg/mL
MIC (Aeromonas hydrophila [35]): < 1.56 µg/mL
MBC (Enterococcus faecalis [36]): 6.25 µg/mL
MIC (Vibrio vulnificus [37]): < 1.56 µg/mL
MBC (Vibrio vulnificus [38]): < 1.56 µg/mL
MBC (Vibrio vulnificus [39]): < 1.56 µg/mL
MBC (Enterococcus faecium [40]): < 1.56 µg/mL
MIC (Klebsiella aerogenes [41]): 1.56 µg/mL
MIC (Pseudomonas aeruginosa [42]): 6.25 µg/mL
MIC (Salmonella enterica [43]): < 1.56 µg/mL
MBC (Vibrio harveyi [44]): 12.5 µg/mL
MBC (Streptococcus agalactiae [45]): < 1.56 µg/mL
MBC (Vibrio vulnificus [46]): < 1.56 µg/mL
MFC (Candida tropicalis [47]): > 100 µg/mL
MBC (Streptococcus iniae [48]): < 1.56 µg/mL

H-FKWKSVLKIVKIFVKIYF-OH
MBC (Acinetobacter baumannii [49]): 12.5 µg/mL
hemolysis at 1 h, 100 ug/ml [50]: 14.2%
MBC (Staphylococcus aureus): > 100 µg/mL

H-KKCIAKAILKKAKKLLKDLVNP-OH
MBC (Klebsiella oxytoca [1]): 50 µg/mL
MIC (Salmonella typhimurium [2]): 100 µg/mL
MIC (Enterococcus faecalis [3]): 50 µg/mL
MIC (Vibrio alginolyticus [4]): 6.25 µg/mL
MIC (Streptococcus iniae [5]): 3.12 µg/mL
MIC (Vibrio vulnificus [6]): 12.5 µg/mL
MBC (Klebsiella aerogenes [7]): 12.5 µg/mL
MBC (Acinetobacter baumannii [49]): 1.56 µg/mL
MIC (Streptococcus agalactiae [9]): 3.12 µg/mL
MIC [11]: < 1.56 µg/mL
MIC (Vibrio anguillarum [12]): 50 µg/mL
MBC (Salmonella enterica [13]): 25 µg/mL
MBC (Vibrio vulnificus [14]): 12.5 µg/mL
hemolysis at 1 h, 100 ug/ml [50]: 3.7%
MBC (Staphylococcus aureus): > 100 µg/mL
MBC (Salmonella typhimurium [15]): 100 µg/mL
MIC (Vibrio vulnificus [16]): 12.5 µg/mL
MIC (Vibrio vulnificus [17]): 12.5 µg/mL
MBC (Aeromonas hydrophila [18]): > 100 µg/mL
MBC [19]: < 1.56 µg/mL
MIC (Enterococcus faecium [20]): > 100 µg/mL
MIC (Edwardsiella tarda [21]): > 100 µg/mL
MFC (Nakaseomyces glabratus [22]): > 100 µg/mL
MIC (Vibrio harveyi [23]): > 100 µg/mL
MBC (Klebsiella pneumoniae [24]): 50 µg/mL
MIC (Nakaseomyces glabratus [25]): > 100 µg/mL
MBC (Edwardsiella tarda [26]): > 100 µg/mL
MBC (Escherichia coli [27]): 50 µg/mL
MIC (Klebsiella pneumoniae [28]): 50 µg/mL
MIC (Klebsiella oxytoca [29]): 50 µg/mL
MBC (Vibrio anguillarum [30]): 100 µg/mL
MBC (Vibrio alginolyticus [31]): 6.25 µg/mL
MIC (Candida tropicalis [33]): > 100 µg/mL
MBC (Pseudomonas aeruginosa [51]): > 100 µg/mL
MIC (Escherichia coli [34]): 50 µg/mL
MIC (Aeromonas hydrophila [35]): > 100 µg/mL
MBC (Enterococcus faecalis [36]): > 100 µg/mL
MIC (Vibrio vulnificus [37]): 12.5 µg/mL
MBC (Vibrio vulnificus [38]): 12.5 µg/mL
MBC (Vibrio vulnificus [39]): 12.5 µg/mL
MBC (Enterococcus faecium [40]): > 100 µg/mL
MIC (Klebsiella aerogenes [41]): 12.5 µg/mL
MIC (Pseudomonas aeruginosa [42]): 100 µg/mL
MIC (Salmonella enterica [43]): 25 µg/mL
MBC (Vibrio harveyi [44]): > 100 µg/mL
MBC (Streptococcus agalactiae [45]): 3.12 µg/mL
MBC (Vibrio vulnificus [46]): 12.5 µg/mL
MFC (Candida tropicalis [47]): > 100 µg/mL
MBC (Streptococcus iniae [48]): 3.12 µg/mL
